Assay results from US12570655B2, “Cysteine covalent modifiers of AKT1 and uses thereof” (Terremoto Biosciences, Inc., priority 2023, dated 2026).
Like-named read-outs stand apart in the source and are kept apart here.

How the values were obtained:
Assay type in all cases: cell-based
[1] = target: T1, AKT1 E17K (Homo sapiens, UniProt P31749, E17K); experiment: Live cell AKT1 E17K target engagement by NanoBRET competitive probe displacement; settings: HEK293 cells transfected with kinase-NanoLuciferase fusion, 2 h at 37° C.
T1 construct: expressed in transfected cells; host or cells: HEK293
T1 sequence (P31749 whole entry E17K, the tested form may be a part): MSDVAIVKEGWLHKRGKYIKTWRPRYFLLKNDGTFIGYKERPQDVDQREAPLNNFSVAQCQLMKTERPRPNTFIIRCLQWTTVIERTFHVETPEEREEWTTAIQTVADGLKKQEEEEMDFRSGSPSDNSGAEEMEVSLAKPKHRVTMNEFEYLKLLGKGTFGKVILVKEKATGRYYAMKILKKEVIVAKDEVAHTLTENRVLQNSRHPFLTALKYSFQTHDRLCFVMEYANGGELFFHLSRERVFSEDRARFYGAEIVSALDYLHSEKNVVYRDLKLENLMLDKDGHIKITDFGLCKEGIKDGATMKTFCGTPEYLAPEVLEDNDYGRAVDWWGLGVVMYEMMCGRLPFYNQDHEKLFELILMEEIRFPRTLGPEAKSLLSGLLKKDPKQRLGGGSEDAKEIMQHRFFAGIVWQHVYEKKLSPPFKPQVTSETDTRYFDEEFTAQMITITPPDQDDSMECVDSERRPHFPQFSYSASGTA
Procedure, shortened: (§1)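 HEK293 cells transiently expressing kinase–NanoLuciferase fusions (overnight transfection) were treated with serial compound dilutions plus fluorescent ATP-competitive tracer at ~EC50 concentration for 2 h at 37 °C. BRET ratio E600/E460 measured after substrate and extracellular luciferase inhibitor addition; IC50 from log(inhibitor)–response Hill fit.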

[2] = target: T2, AKT1 WT (Homo sapiens, UniProt P31749); experiment: Live cell AKT1 WT target engagement by NanoBRET competitive probe displacement; settings: HEK293 cells transfected with kinase-NanoLuciferase fusion, 2 h at 37° C.
T2 construct: expressed in transfected cells; host or cells: HEK293
T2 sequence (P31749 whole entry, the tested form may be a part): as the sequence (P31749 whole entry E17K, the tested form may be a part) above, with K17E counted along it
Procedure, shortened: as §1

[3] = system: LAPC4 prostate cancer cells; experiment: Antiproliferative effects in LAPC4 cells (CellTiter Glo); settings: LAPC4 cells (AKT1 E17K allele), read-out: LAPC4 proliferation IC50
Procedure, shortened: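 LAPC4 cells were cultured in IMDM with 12% FBS and 1% P/S, seeded at 1,000 cells/well and exposed to compound dilutions in DMSO. After 72 h, intracellular ATP was measured by CellTiter Glo luminescence, and IC50 values came from a log(inhibitor) vs. response Hill fit.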

[4] = target: T3, AKT2 (Homo sapiens, UniProt P31751); experiment: Live cell AKT2 target engagement by NanoBRET competitive probe displacement; settings: HEK293 cells transfected with kinase-NanoLuciferase fusion, 2 h at 37° C.
T3 construct: expressed in transfected cells; host or cells: HEK293
T3 sequence (P31751 whole entry, the tested form may be a part): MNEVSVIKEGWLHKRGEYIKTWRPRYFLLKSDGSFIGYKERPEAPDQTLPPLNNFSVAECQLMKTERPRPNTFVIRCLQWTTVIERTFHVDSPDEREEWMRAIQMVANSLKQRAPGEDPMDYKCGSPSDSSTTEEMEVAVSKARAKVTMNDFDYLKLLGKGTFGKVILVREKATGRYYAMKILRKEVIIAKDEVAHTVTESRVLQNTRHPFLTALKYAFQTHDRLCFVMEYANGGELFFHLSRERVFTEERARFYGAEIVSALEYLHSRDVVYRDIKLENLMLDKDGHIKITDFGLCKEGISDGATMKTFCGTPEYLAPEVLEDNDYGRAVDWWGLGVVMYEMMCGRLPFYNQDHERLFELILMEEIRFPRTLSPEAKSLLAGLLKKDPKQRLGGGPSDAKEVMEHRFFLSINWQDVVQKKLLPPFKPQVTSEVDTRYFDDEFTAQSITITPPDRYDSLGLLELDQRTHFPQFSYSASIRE
Procedure, shortened: as §1

Structure (SMILES)	IC50 [1] [nM]	IC50 [2] [nM]	IC50 ([3]; 72 h) [nM]	IC50 [4] [nM]	IC50 ([3]; Homo sapiens, LAPC4, 72 h) [nM]
C=CC(=O)N1CCN(NC2CCc3cc(-n4c(-c5cccnc5N)nc5ccc(-n6ccc(F)n6)nc54)ccc32)CC1 (single isomer, unassigned) [Example 200, 1-(4-{[(1*)-5-[2-(2-aminopyridin-3-yl)-5-(3-fluoropyrazol-1-yl)imidazo[4,5-b]pyridin-3-yl]-2,3-dihydro-1H-inden-1-yl]amino}piperazin-1-yl)prop-2-en-1-one]	15.9	281	317	80.1	–
C=CC(=O)N1CCN(NC2CCc3cc(-n4c(-c5cccnc5N)nc5ccc(-n6ccc(F)n6)nc54)ccc32)CC1 (single isomer, unassigned) [Example 201, 1-(4-{[(1*)-5-[2-(2-aminopyridin-3-yl)-5-(3-fluoropyrazol-1-yl)imidazo[4,5-b]pyridin-3-yl]-2,3-dihydro-1H-inden-1-yl]amino}piperazin-1-yl)prop-2-en-1-one]	10.2	96.8	127	41	–
C=CC(=O)N1CCC(N[C@H]2CCc3cc(-n4c(-c5cccnc5N)nc5ccc(C6CC6)nc54)ccc32)C[C@H]1C (single isomer, unassigned) [Example 210, 1-((2R,4*)-4-(((S)-5-(2-(2-aminopyridin-3-yl)-5-cyclopropyl-3H-imidazo[4,5-b]pyridin-3-yl)-2,3-dihydro-1H-inden-1-yl)amino)-2-methylpiperidin-1-yl)prop-2-en-1-one]	16.8	919	–	272	380
C=CC(=O)N1CCC(N[C@H]2CCc3cc(-n4c(-c5cccnc5N)nc5ccc(C6CC6)nc54)ccc32)C[C@H]1C (single isomer, unassigned) [Example 211, 1-((2R,4*)-4-(((S)-5-(2-(2-aminopyridin-3-yl)-5-cyclopropyl-3H-imidazo[4,5-b]pyridin-3-yl)-2,3-dihydro-1H-inden-1-yl)amino)-2-methylpiperidin-1-yl)prop-2-en-1-one]	23.7	1100	319	79.8	–
C=CC(=O)N1CCC(N[C@H]2CC(O)c3cc(-n4c(-c5cccnc5N)nc5ccc(-n6cccn6)nc54)ccc32)CC1 (single isomer, unassigned) [Example 218, 1-(4-(((1S,3*)-5-(2-(2-aminopyridin-3-yl)-5-(1H-pyrazol-1-yl)-3H-imidazo[4,5-b]pyridin-3-yl)-3-hydroxy-2,3-dihydro-1H-inden-1-yl)amino)piperidin-1-yl)prop-2-en-1-one]	52.3	365	226	140	–
C=CC(=O)N1CCC(N[C@H]2CC(O)c3cc(-n4c(-c5cccnc5N)nc5ccc(-n6cccn6)nc54)ccc32)CC1 (single isomer, unassigned) [Example 219, 1-(4-(((1S,3*)-5-(2-(2-aminopyridin-3-yl)-5-(1H-pyrazol-1-yl)-3H-imidazo[4,5-b]pyridin-3-yl)-3-hydroxy-2,3-dihydro-1H-inden-1-yl)amino)piperidin-1-yl)prop-2-en-1-one]	45.8	279	77.1	95.7	–
C=CC(=O)N1CCC(N[C@H]2CCc3cc(-n4c(-c5cccnc5N)nc5ccc(C6CC6)nc54)ccc32)C(C)C1 (single isomer, unassigned) [Example 229, 1-((3*,4*)-4-(((S)-5-(2-(2-aminopyridin-3-yl)-5-cyclopropyl-3H-imidazo[4,5-b]pyridin-3-yl)-2,3-dihydro-1H-inden-1-yl)amino)-3-methylpiperidin-1-yl)prop-2-en-1-one]	21.9	756	–	97.7	334
C=CC(=O)N1CCC(N[C@H]2CCc3cc(-n4c(-c5cccnc5N)nc5ccc(C6CC6)nc54)ccc32)C(C)C1 (single isomer, unassigned) [Example 230, 1-((3*,4*)-4-(((S)-5-(2-(2-aminopyridin-3-yl)-5-cyclopropyl-3H-imidazo[4,5-b]pyridin-3-yl)-2,3-dihydro-1H-inden-1-yl)amino)-3-methylpiperidin-1-yl)prop-2-en-1-one]	41.9	890	600	346	–
C=CC(=O)N1CCC(N[C@H]2CCc3cc(-n4c(-c5cccnc5N)nc5ccc(C6CC6)nc54)ccc32)C(C)C1 (single isomer, unassigned) [Example 231, 1-((3*,4*)-4-(((S)-5-(2-(2-aminopyridin-3-yl)-5-cyclopropyl-3H-imidazo[4,5-b]pyridin-3-yl)-2,3-dihydro-1H-inden-1-yl)amino)-3-methylpiperidin-1-yl)prop-2-en-1-one]	74.8	1220	398	174	–
C=CC(=O)N1CCC(N[C@H]2CCc3cc(-n4c(-c5cccnc5N)nc5ccc(C6CC6)nc54)ccc32)C(C)C1 (single isomer, unassigned) [Example 232, 1-((3*,4*)-4-(((S)-5-(2-(2-aminopyridin-3-yl)-5-cyclopropyl-3H-imidazo[4,5-b]pyridin-3-yl)-2,3-dihydro-1H-inden-1-yl)amino)-3-methylpiperidin-1-yl)prop-2-en-1-one]	20.8	1080	651	168	–
C=CC(=O)N1CCC(N[C@H]2CC(F)c3cc(-n4c(-c5cccnc5N)nc5ccc(-n6cccn6)nc54)ccc32)CC1 (single isomer, unassigned) [Example 233, 1-(4-(((1S,3*)-5-(2-(2-aminopyridin-3-yl)-5-(1H-pyrazol-1-yl)-3H-imidazo[4,5-b]pyridin-3-yl)-3-fluoro-2,3-dihydro-1H-inden-1-yl)amino)piperidin-1-yl)prop-2-en-1-one]	14.6	59.7	70	28	–
C=CC(=O)N1CCC(N[C@H]2CC(F)c3cc(-n4c(-c5cccnc5N)nc5ccc(-n6cccn6)nc54)ccc32)CC1 (single isomer, unassigned) [Example 234, 1-(4-(((1S,3*)-5-(2-(2-aminopyridin-3-yl)-5-(1H-pyrazol-1-yl)-3H-imidazo[4,5-b]pyridin-3-yl)-3-fluoro-2,3-dihydro-1H-inden-1-yl)amino)piperidin-1-yl)prop-2-en-1-one]	12.1	317	330	70.4	–
C=CC(=O)N1CCC(N[C@@H]2c3ccc(-n4c(-c5cccnc5N)nc5ccc(-n6ccc(F)n6)nc54)cc3CC2F)CC1 (single isomer, unassigned) [Example 236, 1-(4-(((1R,2*)-5-(2-(2-aminopyridin-3-yl)-5-(3-fluoro-1H-pyrazol-1-yl)-3H-imidazo[4,5-b]pyridin-3-yl)-2-fluoro-2,3-dihydro-1H-inden-1-yl)amino)piperidin-1-yl)prop-2-en-1-one]	12.4	778	–	87.2	300
C=CC(=O)N1CCC(N[C@@H]2c3ccc(-n4c(-c5cccnc5N)nc5ccc(-n6ccc(F)n6)nc54)cc3CC2F)CC1 (single isomer, unassigned) [Example 237, 1-(4-(((1R,2*)-5-(2-(2-aminopyridin-3-yl)-5-(3-fluoro-1H-pyrazol-1-yl)-3H-imidazo[4,5-b]pyridin-3-yl)-2-fluoro-2,3-dihydro-1H-inden-1-yl)amino)piperidin-1-yl)prop-2-en-1-one]	17.7	542	362	89.5	–
C=CC(=O)N1CCC(NC2CCc3cc(-n4c(-c5cccnc5N)nc5ccc(C6CC6(F)F)nc54)ccc32)CC1 (single isomer, unassigned) [Example 244, 1-(4-(((*)-5-(2-(2-aminopyridin-3-yl)-5-((*)-2,2-difluorocyclopropyl)-3H-imidazo[4,5-b]pyridin-3-yl)-2,3-dihydro-1H-inden-1-yl)amino)piperidin-1-yl)prop-2-en-1-one]	20.1	984	–	199	371
C=CC(=O)N1CCC(NC2CCc3cc(-n4c(-c5cccnc5N)nc5ccc(C6CC6(F)F)nc54)ccc32)CC1 (single isomer, unassigned) [Example 245, 1-(4-(((*)-5-(2-(2-aminopyridin-3-yl)-5-((*)-2,2-difluorocyclopropyl)-3H-imidazo[4,5-b]pyridin-3-yl)-2,3-dihydro-1H-inden-1-yl)amino)piperidin-1-yl)prop-2-en-1-one]	37.6	715	526	354	–
C=CC(=O)N1CCC(N[C@H]2CCc3cc(-n4c(-c5cccnc5N)nc5ccc(-n6nccn6)nc54)ccc32)C[C@H]1C (single isomer, unassigned) [Example 261, 1-[(2R,4*)-4-{[(1S)-5-[2-(2-aminopyridin-3-yl)-5-(1,2,3-triazol-2-yl)imidazo[4,5-b]pyridin-3-yl]-2,3-dihydro-1H-inden-1-yl]amino}-2-methylpiperidin-1-yl]prop-2-en-1-one]	43.3	555	227	136	–
